{
  "source": "patent US10912817B2",
  "about": "“Prelyophilized, lyophilized and reconstituted formulations comprising TAT-NR2B9C with d-amino acids, histidine and trehalose” (NoNO Inc., priority 2012, dated 2021)",
  "type_in_all_cases": "physicochemical",
  "key": {"[1]": {"assay": "90 mg/mL NA-1 lyophile accelerated stability (small scale 3)", "details": "histidine buffer concentrations of 50 and 75 mM; further tests; shortened resuspension times", "protocol": "A small batch of NA-1 drug product was lyophilized to evaluate solid state stability after 1 week storage at 25° C. and 60° C. Two 90 mg/mL NA-1 formulations were compounded (buffer and buffer with trehalose). Samples were evaluated for appearance, reconstitution, water content and purity by HPLC (MSA method) at t=0 and t=1 week.\nVials were placed on stability at 25° C. and 60° C. and tested after 1 week of storage."}, "[2]": {"assay": "Solid state stability of lyophilized 270 mg NA-1 in 20 mM histidine pH 6.5 and 120 mM trehalose", "details": "same lyophile; at −20° C."}, "[3]": {"assay": "Solubility study of NA-1 (visual analysis)", "details": "pH 6.5, 35, 50, 75 and 100 mg/mL, t=0 and t=24 hours", "protocol": "Due to the relatively low Tg temperatures that would likely require a longer lyophilization cycle to dry, we looked at a wider range of standard bulking agents and looked to reduce the fill volume into the container closure system so that there would be a reduced volume of liquid to lyophilize. […] Samples were visually analyzed at 35, 50, 75 and 100 mg/mL. All solutions were clear at t=0 and t=24 hours. […] A wide range of quantities may be required in a vial, but 270 mg would provide a […] dose for a 100 kg patient. Assuming the target reconstitution concentration for patient administration is still 20 mg/mL (but can be from 1 mg/ml to 100 mg/ml), then a 20-mL lyophilization vial containing 270 mg of NA-1 can be used with a reconstitution volume of 13.5 mL. Therefore, optimal volumes of liquid for lyophilization of NA-1 in the vial would be between 2.5 mL and 10 mL."}},
  "note": "No end group written: not given here.",
  "data": [
    {"sequence": "YGRKKRRQRRRKLSSIESDV [NA-1]", "values": [
      {"measurement": "stability of NA-1", "setting": "[1]", "value": "good stability"},
      {"measurement": "stability of the formulation", "setting": "[2]", "value": "stable"},
      {"measurement": "solubility (visual analysis of solutions)", "setting": "[3]; NA-1 in Histidine+Trehalose", "value": "clear"},
      {"measurement": "solubility (visual analysis of solutions)", "setting": "[3]; NA-1 in Histidine", "value": "clear"}
    ]}
  ]
}
